Molecules are shown by their SMILES.

What all share (format): biochemical
The target of one experiment is T1, Full length Akt1 (Homo sapiens, UniProt P31749).
T1 construct: Full length Akt1 (cat #P2999); purchased PerkinElmer P2999
Briefly: In vitro Akt kinase enzymatic assay (HTRF), Akt1. Particulars: 0.4 nM Akt1, substrate solution with 5 mM ATP, 25° C. 1 hr. Here is the method: (§1) Compounds herein were tested for inhibitory activity of Akt targets according to the following in vitro assay. Full length Akt1 (cat #P2999), Akt2 (cat #PV3184), Akt3 (cat #PV3185), peptide substrate, Ulight-Crosstide (cat #TRF0106-M), Ultra-Europium anti-phospho-Crosstide (cat #TRF-0202-M), and 10×LANCE detection buffer (cat #CR97-100) were purchased from PerkinElmer. In general, assay buffer conditions were chosen based on obtaining optimal enzymatic and linear activities. The assay buffer contains 50 mM HEPES, 10 mM MgCl2, 5 mM DTT, 0.005% Tween20 at pH 7.8. Compound stock (0.001 mM) was prepared in DMSO. The compound plate was prepared by 3-fold and 11-point serial dilutions. 0.5 μL of the compound in DMSO was transferred from the compound plate to the assay plate. Enzyme solution (0.4 nM of Akt1, 0.6 nM of Akt2 or 0.6 nM of Akt3) was prepared in the assay buffer. Note that the enzyme concentration given is based on the given stock concentration reported by the vendor. 0.1 μM substrate solution was prepared in the assay buffer with addition of 5 mM ATP. 10 μL of the enzyme solution was added to the assay plate and then 10 μL of substrate solution was added to the assay plate. The plate was protected from light and the reaction was incubated at 25° C. for 1 hr. The reaction was stopped by adding 10 μL of a solution containing 30 mM EDTA, and 3 nM Ultra Europium anti-phospho Crosstide in 1× detection buffer. The plate was incubated for 15-30 min at room temperature and HTRF (homogenous time resolved fluorescence) was measured on a plate reader. Percentage of inhibition was calculated for each concentration and IC50 value was generated from curve fitting. See Table 8 for data related to compounds of the examples.

The target of the next experiment is T2, Full length Akt3 (Homo sapiens, UniProt Q9Y243).
T2 construct: Full length Akt1 (cat #P2999), Akt2 (cat #PV3184), Akt3 (cat #PV3185); purchased PerkinElmer PV3185
T2 sequence (Q9Y243 whole entry): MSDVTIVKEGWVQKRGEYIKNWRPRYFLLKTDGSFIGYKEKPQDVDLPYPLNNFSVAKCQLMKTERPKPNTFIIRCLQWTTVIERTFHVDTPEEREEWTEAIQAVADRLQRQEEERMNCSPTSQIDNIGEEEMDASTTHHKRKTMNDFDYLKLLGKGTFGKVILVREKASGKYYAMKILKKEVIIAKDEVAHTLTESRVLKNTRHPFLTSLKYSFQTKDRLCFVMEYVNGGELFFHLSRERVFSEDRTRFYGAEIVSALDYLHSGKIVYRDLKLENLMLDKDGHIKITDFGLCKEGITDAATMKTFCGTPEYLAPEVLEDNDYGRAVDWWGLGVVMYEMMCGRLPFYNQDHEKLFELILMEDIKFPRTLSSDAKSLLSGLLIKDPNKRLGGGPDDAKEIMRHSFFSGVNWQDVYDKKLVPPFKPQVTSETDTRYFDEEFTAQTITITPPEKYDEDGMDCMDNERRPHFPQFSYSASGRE
Put plainly: In vitro Akt kinase enzymatic assay (HTRF), Akt3. Particulars: 0.6 nM Akt3, substrate solution with 5 mM ATP, 25° C. 1 hr. Here is the method:
as §1

For a further experiment, the target named is T3, Full length Akt2 (Homo sapiens, UniProt P31751).
T3 construct: Full length Akt1 (cat #P2999), Akt2 (cat #PV3184); purchased PerkinElmer PV3184
T3 sequence (P31751 whole entry): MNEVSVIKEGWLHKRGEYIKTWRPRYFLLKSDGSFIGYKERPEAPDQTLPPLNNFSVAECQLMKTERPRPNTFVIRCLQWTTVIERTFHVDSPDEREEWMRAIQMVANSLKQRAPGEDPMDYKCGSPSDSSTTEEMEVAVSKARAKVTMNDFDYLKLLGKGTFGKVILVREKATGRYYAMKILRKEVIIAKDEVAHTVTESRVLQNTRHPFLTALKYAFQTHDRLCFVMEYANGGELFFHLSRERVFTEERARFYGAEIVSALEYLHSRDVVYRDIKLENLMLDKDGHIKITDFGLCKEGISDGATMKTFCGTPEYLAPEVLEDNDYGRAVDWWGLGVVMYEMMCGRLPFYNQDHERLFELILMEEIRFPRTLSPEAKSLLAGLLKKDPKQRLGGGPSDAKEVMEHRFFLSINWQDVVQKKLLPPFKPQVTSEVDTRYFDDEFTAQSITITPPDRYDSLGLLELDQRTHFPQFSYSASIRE
Briefly: In vitro Akt kinase enzymatic assay (HTRF), Akt2. Particulars: 0.6 nM Akt2, substrate solution with 5 mM ATP, 25° C. 1 hr. Here is the method: as §1

Another experiment deals with T4, Full length PKA (Homo sapiens, UniProt P17612).
T4 construct: Full length PKA (cat #P2912); purchased Invitrogen P2912
Briefly: PKA in vitro enzymatic assay (HTRF). To be noted: 0.035 nM enzyme solution, substrate solution with 5 mM ATP, 25° C. 1 hr. Here is the method: Full length PKA (cat #P2912), peptide substrate, fluorescein CREBtide peptide (cat #PV3508), Tb-Crebtide p-S133 Ab (cat #PV3566), and Lanthascreen TR-FRET Dilution Buffer stored (part # PV3574) were purchased from Invitrogen. In general, assay buffer conditions were chosen based on obtaining optimal and linear enzymatic activities. The assay buffer contains 50 mM HEPES, 10 mM MgCl2, 5 mM DTT, 0.005% Tween20 at pH 7.8. Compound stock (0.001 mM) was prepared in DMSO. The compound plate was prepared by 3-fold and 11-point serial dilutions. 0.5 μL of the compound in DMSO was transferred from the compound plate to the assay plate. 0.035 nM enzyme solution was prepared in the assay buffer. Note that the enzyme concentration given is based on the given stock concentration reported by the vendor. 0.1 μM substrate solution was prepared in the assay buffer with addition of 5 mM ATP. 10 μL of the enzyme solution was added to the assay plate and then 10 μL of substrate solution was added to the assay plate. The plate was protected from light and the reaction was incubated at 25° C. for 1 hr. The reaction was stopped by adding 10 μL of a solution containing 30 mM EDTA, and 1.5 nM Tb-Crebtide p-S133 Ab in 1× detection buffer. The plate was incubated for 15-30 min at room temperature and HTRF (homogenous time resolved fluorescence) was measured on a plate reader. Percentage of inhibition was calculated for each concentration and IC50 value was generated from curve fitting. See Table 8 for data related to compounds of the examples.

T1 sequence (P31749 whole entry): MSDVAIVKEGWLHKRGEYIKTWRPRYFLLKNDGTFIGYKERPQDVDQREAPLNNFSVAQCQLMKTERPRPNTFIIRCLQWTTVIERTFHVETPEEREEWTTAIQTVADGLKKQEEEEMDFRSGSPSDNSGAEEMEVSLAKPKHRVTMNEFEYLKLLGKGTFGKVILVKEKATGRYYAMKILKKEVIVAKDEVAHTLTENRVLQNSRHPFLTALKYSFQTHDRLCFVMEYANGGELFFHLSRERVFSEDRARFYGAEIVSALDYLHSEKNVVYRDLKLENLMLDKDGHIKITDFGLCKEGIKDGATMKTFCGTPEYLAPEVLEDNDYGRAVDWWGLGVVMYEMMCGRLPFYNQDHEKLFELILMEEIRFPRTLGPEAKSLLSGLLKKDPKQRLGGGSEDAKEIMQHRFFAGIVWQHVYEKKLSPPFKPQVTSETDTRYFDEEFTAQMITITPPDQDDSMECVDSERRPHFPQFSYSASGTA

With `CSCc1cnn(C)c1-c1cc2c(cn1)C(=O)N([C@H](CN)Cc1cccc(F)c1)C2` [Example 99, 2-[(1S)-2-amino-1-(3-fluorobenzyl)ethyl]-6-[4-(methylthiomethyl)-1-methyl-1H-pyrazol-5-yl]-1,2-dihydro-3H-pyrrolo[3,4-c]pyridin-3-one], the IC50 on Full length Akt1 was under 0.5 µM; at Full length Akt3 it was 0.5 to 5 µM; on Full length Akt2, 0.5 to 5 µM; against Full length PKA it was over 5 µM.

As to `Cn1ncc(-c2cccc3ccccc23)c1-c1ccc2c(c1)CN([C@H](CN)Cc1cccc(F)c1)C2=O` [Example 22, 2-[(1S)-2-amino-1-(3-fluorobenzyl)ethyl]-5-[1-methyl-4-(1-naphthyl)-1H-pyrazol-5-yl]isoindolin-1-one], the IC50 on Full length Akt1, against Full length Akt3, on Full length Akt2 and on Full length PKA was over 5 µM each time.

Turning to `Cn1ncc(-c2ccc(F)nc2)c1-c1ccc2c(c1)CN([C@H](CN)Cc1cccc(F)c1)C2=O` [Example 25, 2-[(1S)-2-amino-1-(3-fluorobenzyl)ethyl]-5-[4-(6-fluoropyridin-3-yl)-1-methyl-1H-pyrazol-5-yl]isoindolin-1-one], the IC50 at Full length Akt1, on Full length Akt3, at Full length Akt2 and against Full length PKA was over 5 µM each time.

`COc1ccc(-c2cnn(C)c2-c2ccc3c(c2)CN([C@H](CN)Cc2cccc(F)c2)C3=O)cn1` [Example 28, 2-[(1S)-2-amino-1-(3-fluorobenzyl)ethyl]-5-[4-(6-methoxypyridin-3-yl)-1-methyl-1H-pyrazol-5-yl]isoindolin-1-one]: the IC50 on Full length Akt1 is 0.5 to 5 µM; on Full length Akt3, over 5 µM; at Full length Akt2, over 5 µM; at Full length PKA, over 5 µM.

For the molecule `COc1cccc(C(CN)N2Cc3cc(-c4c(Cl)cnn4C)ccc3C2=O)c1` (centres unmarked) [Example 125, 2-[2-amino-1-(3-methoxyphenyl)ethyl]-5-(4-chloro-1-methyl-1H-pyrazol-5-yl)isoindolin-1-one], the IC50 at Full length Akt1 is under 0.5 µM; on Full length Akt3, 0.5 to 5 µM; at Full length Akt2, 0.5 to 5 µM; against Full length PKA, over 5 µM.

Turning to `CC(C)OCc1cnn(C)c1-c1ccc2c(c1)CN([C@@H](CN)c1ccccc1)C2=O` [Example 122, 2-[(1R)-2-amino-1-phenylethyl]-5-[4-(2-propoxymethyl)-1-methyl-1H-pyrazol-5-yl]iso-indolin-1-one], the IC50 against Full length Akt1 was under 0.5 µM; at Full length Akt3, 0.5 to 5 µM; against Full length Akt2, 0.5 to 5 µM; against Full length PKA it was over 5 µM.

Take `CCCOCc1cnn(C)c1-c1cc2c(cn1)C(=O)N([C@H](CN)Cc1cccc(F)c1)C2` [Example 96, 2-[(1S)-2-amino-1-(3-fluorobenzyl)ethyl]-6-[4-(1-propoxymethyl)-1-methyl-1H-pyrazol-5-yl]-1,2-dihydro-3H-pyrrolo[3,4-c]pyridin-3-one]: the concentration for half-maximal inhibition (IC50) against Full length Akt1 is under 0.5 µM; against Full length Akt3, under 0.5 µM; at Full length Akt2, under 0.5 µM; at Full length PKA it was over 5 µM.

Consider `COc1ncccc1-c1cnn(C)c1-c1ccc2c(c1)CN([C@H](CN)Cc1cccc(F)c1)C2=O` [Example 27, 2-[(1S)-2-amino-1-(3-fluorobenzyl)ethyl]-5-[4-(2-methoxypyridin-3-yl)-1-methyl-1H-pyrazol-5-yl]isoindolin-1-one], for which the IC50 on Full length Akt1, against Full length Akt3, against Full length Akt2 and against Full length PKA was over 5 µM in each case.

Take `Cn1cc(-c2cccc(C[C@@H](CN)N3Cc4cc(-c5c(Cl)cnn5C)ccc4C3=O)c2)cn1` [Example 70, 2-{(1S)-2-amino-1-[3-(1-methyl-1H-pyrazol-4-yl)benzyl]ethyl}-5-(4-chloro-1-methyl-1H-pyrazol-5-yl)isoindolin-1-one]: the IC50 at Full length Akt1 was under 0.5 µM; against Full length Akt3, 0.5 to 5 µM; against Full length Akt2, over 5 µM; at Full length PKA, over 5 µM.

With `Cn1ncc(-c2ccncc2)c1-c1ccc2c(c1)CN([C@H](CN)Cc1cccc(F)c1)C2=O` [Example 18, 2-[(1S)-2-amino-1-(3-fluorobenzyl)ethyl]-5-(1-methyl-4-pyridin-4-yl-1H-pyrazol-5-yl)isoindolin-1-one], the IC50 is over 5 µM against Full length Akt1, 0.5 to 5 µM at Full length Akt3, over 5 µM on Full length Akt2 and over 5 µM against Full length PKA.

For `CN(C)CC(c1ccccc1)N1Cc2cc(-c3ccnn3C)ccc2C1=O` (centres unmarked) [Example 115], the IC50 at Full length Akt1 is 0.5 to 5 µM; on Full length Akt3, over 5 µM; on Full length Akt2 it was over 5 µM; against Full length PKA, over 5 µM.

For the molecule `CNC[C@H](Cc1cccc(F)c1)N1Cc2cc(-c3c(Cl)cnn3C)ccc2C1=O` [Example 30, 5-(4-chloro-1-methyl-1H-pyrazol-5-yl)-2-[(1S)-1-(3-fluorobenzyl)-2-(methylamino)ethyl]isoindolin-1-one], the half-maximal inhibitory concentration (IC50) was under 0.5 µM against Full length Akt1, 0.5 to 5 µM against Full length Akt3, 0.5 to 5 µM at Full length Akt2 and over 5 µM at Full length PKA.

For `Cn1ncc(-c2cncnc2)c1-c1ccc2c(c1)CN([C@H](CN)Cc1cccc(F)c1)C2=O` [Example 23, 2-[(1S)-2-amino-1-(3-fluorobenzyl)ethyl]-5-(1-methyl-4-pyrimidin-5-yl-1H-pyrazol-5-yl)isoindolin-1-one], the IC50 on Full length Akt1, against Full length Akt3, against Full length Akt2 and against Full length PKA was over 5 µM in each case.

`Cn1cc(-c2cccc(C[C@@H](CN)N3Cc4cc(-c5ccnn5C)ccc4C3=O)c2)cn1` [Example 83, 2-{(1S)-2-amino-1-[3-(1-methyl-1H-pyrazol-4-yl)benzyl]ethyl}-5-(1-methyl-1H-pyrazol-5-yl)isoindolin-1-one]: the IC50 on Full length Akt1 was 0.5 to 5 µM; on Full length Akt3, over 5 µM; against Full length Akt2, 0.5 to 5 µM; at Full length PKA, over 5 µM.

On to `COc1ccc(C(CN)N2Cc3cc(-c4c(Cl)cnn4C)ccc3C2=O)cc1` (centres unmarked) [Example 126, 2-[2-amino-1-(4-methoxyphenyl)ethyl]-5-(4-chloro-1-methyl-1H-pyrazol-5-yl)isoindolin-1-one], for which the IC50 against Full length Akt1, at Full length Akt3, on Full length Akt2 and against Full length PKA was over 5 µM in each case.

As to `Cn1ncc(Cl)c1-c1ccc2c(c1)CN([C@H](CNC1CC1)Cc1cccc(F)c1)C2=O` [Example 33, 5-(4-chloro-1-methyl-1H-pyrazol-5-yl)-2-[(1S)-2-(cyclopropylamino)-1-(3-fluorobenzyl)ethyl]isoindolin-1-one], the IC50 is under 0.5 µM at Full length Akt1, 0.5 to 5 µM against Full length Akt3, 0.5 to 5 µM on Full length Akt2 and over 5 µM at Full length PKA.

For the molecule `Cn1ncc(Cl)c1-c1ccc2c(c1)CN(C(CN)c1cccc(F)c1)C2=O` (centres unmarked) [Example 123, 2-[2-amino-1-(3-fluorophenyl)ethyl]-5-(4-chloro-1-methyl-1H-pyrazol-5-yl)isoindolin-1-one], the IC50 was under 0.5 µM on Full length Akt1, 0.5 to 5 µM against Full length Akt3, 0.5 to 5 µM against Full length Akt2 and 0.5 to 5 µM at Full length PKA.

Source of the values: patent US8895571B2, “Isoindolinone and pyrrolopyridinone derivatives as Akt inhibitors” (Incyte Corporation, priority 2011, dated 2014).
